From a melting point compilation (Tetko et al.)

settings: a range is the spread between reports

For `O=c1c(-c2ccc(O)cc2)coc2cc(O)cc(O)c12`, which melting point is on record?
Its melting point is 300 to 302 °C.

For `Brc1ccccc1I`, which melting point is on record?
Its melting point is 9.5 to 10 °C.

For `Fc1ccc(Br)cc1`, which melting point is on record?
Its melting point is -17.4 to -16 °C.

For `C=CCC(C(=O)O)C(=O)O`, which melting point is on record?
Its melting point is 104 to 105 °C.

With `CC(C)=CC(=O)O` as the compound, how does the melting point read?
The melting point was 67 to 69.5 °C.

For `O=C(O)c1ccoc1`, which melting point is on record?
The melting point was 122 °C.

With `Cc1c(Br)cc(Br)cc1Br` as the compound, how does the melting point read?
The melting point was 69 to 70 °C.

For `CCC(C)C(C)(C)C` (stereo not given), which melting point is on record?
Its melting point is -112 °C.

For `ClCCCCCl`, which melting point is on record?
Its melting point is -38 to -37 °C.

With `O=C(O)CC[N+](=O)[O-]` as the compound, how does the melting point read?
The melting point was 62 to 64 °C.

Which melting point does the source give for `Cc1cc(N)nc(C)n1` here?
The melting point was 183 to 185 °C.

Which melting point does the source give for `COc1ccccc1OC(=O)c1ccccc1` here?
Its melting point is 57.5 to 59 °C.

For `ClCCCBr`, which melting point is on record?
Its melting point is -59 to -58.9 °C.

With `CN(C)C(=O)Nc1ccccc1` as the compound, how does the melting point read?
Its melting point is 132 to 134 °C.

For `CCC(C)=O`, which melting point is on record?
Its melting point is -87 to -86 °C.

With `Oc1cc(Cl)ccc1Cl` as the compound, how does the melting point read?
The melting point was 57 to 59 °C.

For `CC(C)=CC(C)C`, which melting point is on record?
The melting point was -128 °C.

For `Clc1ccc(-c2ccccc2)cc1`, which melting point is on record?
The melting point was 78 to 78.8 °C.

Which melting point does the source give for `Nc1cc([N+](=O)[O-])ccc1Cl` here?
Its melting point is 118 to 121 °C.

For `Clc1ccc(Cl)cc1`, which melting point is on record?
The melting point was 52.1 to 55 °C.

Which melting point does the source give for `NCCCNCCCCNCCCN` here?
The melting point was 28 to 29 °C.

Which melting point does the source give for `O=C1C=C(Cl)C(=O)C=C1Cl` here?
The melting point was 160 to 162 °C.

Which melting point does the source give for `COc1cc(C=CCO)ccc1O` here?
Its melting point is 74 to 76 °C.

For `CC1CC2C3CCC4=CC(=O)C=CC4(C)C3(F)C(O)CC2(C)C1(O)C(=O)CO` (stereo not given), which melting point is on record?
Its melting point is 262 to 263 °C.

For `C=CCN`, which melting point is on record?
Its melting point is -88.2 to -88 °C.

For `Nc1ccccc1C(=O)O`, which melting point is on record?
Its melting point is 144 to 147 °C.

Which melting point does the source give for `CCc1ccc(C)cc1C` here?
Its melting point is -63 to -62.9 °C.

For `COc1cc(C(=O)O)cc(O)c1OC`, which melting point is on record?
The melting point was 195 to 196 °C.

With `O=C(Cl)c1cccc([N+](=O)[O-])c1` as the compound, how does the melting point read?
Its melting point is 33 to 36 °C.

With `c1cncnc1` as the compound, how does the melting point read?
Its melting point is 21 to 22 °C.

With `Cc1cc(N)ccc1Cl` as the compound, how does the melting point read?
The melting point was 83.5 to 84 °C.

With `CC(C)OC(=O)Nc1ccccc1` as the compound, how does the melting point read?
The melting point was 87.3 to 88 °C.

For `CC(C)(O)c1ccccc1`, which melting point is on record?
The melting point was 32 to 36 °C.

Which melting point does the source give for `CCCCCCCCC(=O)O` here?
The melting point was 10 to 12.3 °C.

For `Nn1cnnc1`, which melting point is on record?
Its melting point is 82.5 to 86 °C.

For `COP(=O)(NC(C)=O)SC` (stereo not given), which melting point is on record?
The melting point was 88 to 89 °C.

With `ClCC(Cl)Cl` as the compound, how does the melting point read?
The melting point was -37 to -35 °C.

With `COC(=O)C(Cl)(Cl)Cl` as the compound, how does the melting point read?
Its melting point is -18 to -17.5 °C.

Which melting point does the source give for `Oc1cc(O)cc(O)c1` here?
The melting point was 218 °C.

For `CC(O)CNCC(C)O` (stereo not given), which melting point is on record?
The melting point was 42 to 44.5 °C.

For `O=c1[nH]c(=O)n(C2CC(O)C(CO)O2)cc1F` (stereo not given), which melting point is on record?
Its melting point is 150 °C.

For `Cc1cccnc1`, which melting point is on record?
The melting point was -18.1 to -18 °C.

With `O=Cc1c(Cl)cccc1Cl` as the compound, how does the melting point read?
Its melting point is 70.5 to 71.5 °C.

With `Cc1ccc(C#N)cc1` as the compound, how does the melting point read?
Its melting point is 28 to 29.5 °C.

With `C#CCCCCCCCCCCCCCCCC` as the compound, how does the melting point read?
The melting point was 22.5 to 27 °C.

Which melting point does the source give for `COc1ccc2[nH]ccc2c1` here?
The melting point was 54 to 57 °C.

For `CCCCC(C)CCCC`, which melting point is on record?
The melting point was -88 to -87.7 °C.

For `CCCCC(C)=O`, which melting point is on record?
The melting point was -57 to -55.5 °C.

For `O=C(O)c1ccc(CBr)cc1`, which melting point is on record?
Its melting point is 225 to 230 °C.

Which melting point does the source give for `O=C(O)Cc1cccc([N+](=O)[O-])c1` here?
The melting point was 118 to 119 °C.

For `Cc1cc(Br)ccc1Br`, which melting point is on record?
The melting point was 5 to 6 °C.

For `O=C1c2ccccc2C(=O)C1c1ccccc1`, which melting point is on record?
Its melting point is 150 °C.

Which melting point does the source give for `COc1ccccc1CC#N` here?
The melting point was 66 to 69.8 °C.

With `Brc1cc(Br)cc(Br)c1` as the compound, how does the melting point read?
The melting point was 122 to 124 °C.

With `OCC(O)C1OC2OC(C(Cl)(Cl)Cl)OC2C1O` (stereo not given) as the compound, how does the melting point read?
The melting point was 183 to 187 °C.

For `CCO[Si](OCC)(OCC)OCC`, which melting point is on record?
Its melting point is -86 to -82.5 °C.

Which melting point does the source give for `ClC(Cl)(Cl)c1ccccc1` here?
Its melting point is -8 to -4 °C.

Which melting point does the source give for `O=C(Cl)c1ccc(Cl)cc1Cl` here?
The melting point was 16.5 to 18 °C.

Which melting point does the source give for `CNC(=O)CSP(=S)(OC)OC` here?
Its melting point is 51.5 to 52 °C.

For `O=C(O)C(F)(F)F`, which melting point is on record?
The melting point was -15.2 to -15 °C.

With `C=CCC(C)CC` (stereo not given) as the compound, how does the melting point read?
The melting point was -142 to -141 °C.

Which melting point does the source give for `O=C(O)c1ccccc1Br` here?
The melting point was 146 to 150 °C.

With `CCN1CCNC(=O)C1=O` as the compound, how does the melting point read?
The melting point was 108 to 110 °C.

Which melting point does the source give for `Nc1cccc2cccnc12` here?
Its melting point is 65 to 70 °C.

For `NC(CC(=O)O)C(=O)O` (stereo not given), which melting point is on record?
The melting point was 270 to 275 °C.

For `Nc1cccc(Cl)c1`, which melting point is on record?
Its melting point is -10.4 to -10 °C.

Which melting point does the source give for `CCN=c1nc(Cl)[nH]c(=NC(C)C)[nH]1` here?
The melting point was 172 to 177 °C.

Which melting point does the source give for `CCCCCCCCl` here?
Its melting point is -70 to -69.5 °C.

With `CCC1CC1` as the compound, how does the melting point read?
The melting point was -149 °C.

Which melting point does the source give for `O=C(O)[C@@H]1CCCN1C(=O)OCc1ccccc1` here?
Its melting point is 76 to 77 °C.

Which melting point does the source give for `OCc1cccnc1` here?
Its melting point is -7 to -6.5 °C.

For `Oc1ccc2c(c1)CCC2`, which melting point is on record?
Its melting point is 53 to 58 °C.

With `N#CCC(N)=O` as the compound, how does the melting point read?
The melting point was 120 to 122 °C.

With `c1ccc2nc(-c3ccc4ccccc4n3)ccc2c1` as the compound, how does the melting point read?
Its melting point is 194 to 195 °C.

With `c1ccc2cc3c(cc2c1)-c1cccc2cccc-3c12` as the compound, how does the melting point read?
The melting point was 216 to 217 °C.

For `COc1cccc([N+](=O)[O-])c1`, which melting point is on record?
Its melting point is 38 to 38.5 °C.

Which melting point does the source give for `CCCCCCCCCCCCCCCCBr` here?
The melting point was 17 to 18 °C.

Which melting point does the source give for `O=C(Cl)CCCCCCCCC(=O)Cl` here?
The melting point was -5 to -2.5 °C.

For `N#CSCSC#N`, which melting point is on record?
The melting point was 105 to 106 °C.

Which melting point does the source give for `CCC1CCCC1C` (stereo not given) here?
The melting point was -106 °C.

Which melting point does the source give for `O=C(O)Cc1cccc(C(F)(F)F)c1` here?
The melting point was 77 to 78 °C.

Which melting point does the source give for `SCc1ccc(Cl)cc1` here?
Its melting point is 19 to 20 °C.

Which melting point does the source give for `Oc1ccccc1Cl` here?
The melting point was 7 to 9.8 °C.

Which melting point does the source give for `O=c1[nH]c2ccccc2n1CCCN1CCC(n2c(=O)[nH]c3cc(Cl)ccc32)CC1` here?
Its melting point is 238 to 242 °C.

For `CN(C)C(=O)Nc1cccc(C(F)(F)F)c1`, which melting point is on record?
Its melting point is 164 °C.
